Key:
JAK2 kinase = JAK2 kinase (Homo sapiens (Human), UniProt O60674); assay: Assay for inhibiting JAK2 kinase (in vitro kinase assay, HRP anti-phosphotyrosine antibody/TMB absorbance); format: biochemical; conditions: 20 μM ATP, 50 minutes at room temperature; read-out: IC50 (JAK2/Bio)
Description: In vitro activity of compounds of the present invention for inhibiting JAK2 kinase was determined by the following method.

[1] = system: human erythroid leukemia cell line TF-1; assay: Proliferation inhibition assay on human erythroid leukemia cell line TF-1 mediated by IL-4 (Cell Counting Kit-8); format: cell-based; conditions: TF-1 cells, 10 ng/mL IL-4, 72 hours
Source text: The following in vitro assay is to determine the activity of the compounds of the present invention for inhibiting the proliferation of human erythroid leukemia cell line TF-1.
The activity is represented by the IC50 value, which can not only reflect the activity of a test compound for inhibiting JAK2 and JAK3 kinase, but can also reflect the selectivity of a test compound for JAK2 and JAK3 kinase.
The general procedures of the assay are given as follows: first, the TF-1 cells (purchased from ATCC, Catalog number: CRL 2003) were seeded in a 96-well cell culture plate at a suitable cell concentration (8000 cells/mL medium), and 10 ng/mL IL-4 (Invitrogen, Catalog Number: PHC0044) were added to each well. Then 10× serial concentration gradient of test compounds solutions (10000, 1000, 100, 10, 1 and 0.1 nM) were prepared, and then the 10× compound solutions prepared above were added to the 96-well cell culture plate containing IL-4. After the cell plates were cultured continuously for 72 hours, the activity of the test compounds for inhibiting the cell proliferation was determined by using a Cell Counting Kit-8 (purchased from Dojindo, Catalog Number: CK04). IC50 values were calculated from the data of the inhibition rates at various concentrations of the test compounds.
(§1) The biological activity of the compounds of the present invention was tested by using the assay described above.

[2] = Pharmacokinetics assay in rats, intragastric administration, plasma by LC/MS/MS; format: in vivo, Sprague-Dawley (SD) rats; conditions: both sexes, Sprague-Dawley, rat, plasma, po, SD rats, 10 mg/kg; for Vd/F: read-out: Apparent Distribution Volume Vz/F; for AUC: read-out: Area Under Curve AUC; for CL/F: read-out: Clearance CL/F; for half-life: read-out: Half-Life t½ (converted); for Cmax: read-out: Plasma Conc. Cmax
Procedure, shortened: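 Fasted SD rats of both sexes dosed intragastrically at 10.0 mg/kg as a 1.0 mg/mL DMSO suspension; fed 2 h post-dose. Plasma sampled at various time points, protein-precipitated with methanol plus internal standard, and analyzed by LC-MS/MS.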

T cells = assay: Proliferation inhibition assay on T cells (PBMC, anti-CD3, IL-2, ATPlite); format: cell-based; conditions: Homo sapiens, T-cell; IL-2 10 ng/mL, 72 hours
Source text: The following in vitro assay is to determine the activity of the compounds of the present invention for inhibiting the proliferation of T cells.
The activity is represented by the IC50 value.
The general procedures of the assay are given as follows: first, the PBMC cell line (purchased from Shanghai Blood Center) was centrifuged, the supernatant was removed, and the cells counted. […] Then, the cells were washed 3 times, resuspended, diluted to 2×10^6/mL, and then mixed with recombinant human IL-2 (purchased from Peprotech, Catalog Number: 200-02) to a concentration of 10 ng/mL, and cultured for another 3 days. The cells were washed again 3 times, and diluted to 5×10^5/mL. 80 μL of the cells were seeded in each well of a 96-well cell culture plate. […] To the control wells, 10 μL culture medium were added. The plate was placed in an incubator. After incubating for 1 hr, negative control wells were mixed with 10 μL of culture medium, and the rest of the wells were mixed with IL-2 to a concentration of 10 ng/mL, and incubated continuously for 72 hours. […] IC50 values were calculated from the data of inhibition rates at various concentrations of the test compounds.
as §1

JAK1 kinase = JAK1 kinase (Homo sapiens (Human), UniProt P23458); assay: Assay for inhibiting JAK1 kinase (in vitro kinase assay, HRP anti-phosphotyrosine antibody/TMB absorbance); format: biochemical; conditions: 20 μM ATP, 50 minutes at room temperature; read-out: IC50 (JAK1/Bio)
Description: In vitro activity of compounds of the present invention for inhibiting JAK1 kinase was determined by the following method.
IC50 values of test compounds was calculated from the data of the test compounds in inhibiting the activity of JAK1 kinase at different concentrations.

Sequence of JAK2 kinase (O60674 whole entry): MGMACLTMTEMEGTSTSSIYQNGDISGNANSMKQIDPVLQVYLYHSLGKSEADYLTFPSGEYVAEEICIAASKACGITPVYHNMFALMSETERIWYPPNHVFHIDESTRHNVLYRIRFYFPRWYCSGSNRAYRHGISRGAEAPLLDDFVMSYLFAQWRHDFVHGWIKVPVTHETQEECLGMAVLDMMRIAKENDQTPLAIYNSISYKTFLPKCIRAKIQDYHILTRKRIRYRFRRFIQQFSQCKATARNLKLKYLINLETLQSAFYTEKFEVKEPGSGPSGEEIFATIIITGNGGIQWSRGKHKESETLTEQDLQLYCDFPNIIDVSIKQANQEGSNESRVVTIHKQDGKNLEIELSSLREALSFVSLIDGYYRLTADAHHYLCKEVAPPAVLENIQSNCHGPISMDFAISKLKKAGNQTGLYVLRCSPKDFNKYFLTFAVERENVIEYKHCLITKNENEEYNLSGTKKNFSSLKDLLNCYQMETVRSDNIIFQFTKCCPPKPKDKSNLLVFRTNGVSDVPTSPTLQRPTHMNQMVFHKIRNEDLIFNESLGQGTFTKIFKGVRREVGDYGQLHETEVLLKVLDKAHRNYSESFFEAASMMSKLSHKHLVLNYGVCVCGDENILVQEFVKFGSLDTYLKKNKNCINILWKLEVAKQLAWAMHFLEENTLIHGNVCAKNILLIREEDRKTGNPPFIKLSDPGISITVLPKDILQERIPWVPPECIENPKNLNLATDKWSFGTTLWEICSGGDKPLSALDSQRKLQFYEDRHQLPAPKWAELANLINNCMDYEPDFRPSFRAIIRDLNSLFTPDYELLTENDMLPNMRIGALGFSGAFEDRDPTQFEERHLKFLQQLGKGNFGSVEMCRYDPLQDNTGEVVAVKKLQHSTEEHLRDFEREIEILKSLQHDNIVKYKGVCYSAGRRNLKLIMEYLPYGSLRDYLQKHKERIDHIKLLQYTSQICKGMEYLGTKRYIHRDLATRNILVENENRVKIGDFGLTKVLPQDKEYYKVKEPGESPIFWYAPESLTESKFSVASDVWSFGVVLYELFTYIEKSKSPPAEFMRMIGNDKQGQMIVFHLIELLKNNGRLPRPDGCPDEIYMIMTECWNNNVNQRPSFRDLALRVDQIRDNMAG
Sequence of JAK1 kinase (P23458 whole entry): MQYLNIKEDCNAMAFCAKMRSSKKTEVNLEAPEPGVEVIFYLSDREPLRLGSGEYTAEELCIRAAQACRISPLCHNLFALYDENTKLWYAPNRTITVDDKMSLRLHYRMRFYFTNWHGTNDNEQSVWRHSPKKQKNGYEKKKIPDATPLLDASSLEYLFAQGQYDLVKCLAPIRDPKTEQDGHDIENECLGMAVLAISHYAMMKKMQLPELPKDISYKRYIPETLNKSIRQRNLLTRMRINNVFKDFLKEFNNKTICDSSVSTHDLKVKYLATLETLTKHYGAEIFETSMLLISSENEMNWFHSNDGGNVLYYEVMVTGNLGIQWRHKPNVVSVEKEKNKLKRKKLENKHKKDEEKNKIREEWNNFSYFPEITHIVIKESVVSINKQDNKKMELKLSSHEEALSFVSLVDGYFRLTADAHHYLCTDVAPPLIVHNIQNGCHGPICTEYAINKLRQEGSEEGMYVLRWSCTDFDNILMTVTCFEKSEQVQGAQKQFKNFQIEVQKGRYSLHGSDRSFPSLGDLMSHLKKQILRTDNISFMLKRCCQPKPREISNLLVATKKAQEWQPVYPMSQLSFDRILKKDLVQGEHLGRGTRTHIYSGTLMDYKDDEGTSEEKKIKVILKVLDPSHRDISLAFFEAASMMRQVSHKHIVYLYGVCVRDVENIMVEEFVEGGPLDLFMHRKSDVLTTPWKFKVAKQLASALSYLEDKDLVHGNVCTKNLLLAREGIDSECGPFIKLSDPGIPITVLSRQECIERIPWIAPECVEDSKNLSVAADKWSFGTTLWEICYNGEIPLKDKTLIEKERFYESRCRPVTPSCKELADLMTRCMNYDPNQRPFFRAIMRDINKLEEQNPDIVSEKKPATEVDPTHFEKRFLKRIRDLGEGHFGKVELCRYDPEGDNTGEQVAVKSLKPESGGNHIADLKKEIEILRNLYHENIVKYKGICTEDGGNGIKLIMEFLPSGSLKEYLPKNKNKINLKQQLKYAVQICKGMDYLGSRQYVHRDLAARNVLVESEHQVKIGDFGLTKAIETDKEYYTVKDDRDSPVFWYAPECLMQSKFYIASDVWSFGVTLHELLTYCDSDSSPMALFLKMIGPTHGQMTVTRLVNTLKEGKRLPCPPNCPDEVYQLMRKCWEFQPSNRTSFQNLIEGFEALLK

| Compound | IC50 (JAK2 kinase) | IC50 [1] | Vd/F [2] | AUC [2] | CL/F [2] | half-life [2] | Cmax [2] | IC50 ([1]; Homo sapiens, TF-1, 72 h) | IC50 ([1]; Homo sapiens) | IC50 (T cells) | IC50 (JAK1 kinase) |
| --- | --- | --- | --- | --- | --- | --- | --- | --- | --- | --- | --- |
| CN(c1ncnc2[nH]ccc12)[C@H]1C[C@H]2CNC(=O)C[C@H]2C1 [Example 40, (4aR,6R,7aR)-6-(Methyl(7H-pyrrolo[2,3-d]pyrimidin-4-yl)amino) hexahydro-1H-cyclopenta[c]pyridin-3(2H)-one] | 23 nM | 399 nM | 6.99 ± 3.39 L/kg | 5230 ± 1170 ng·h/mL | 33.2 ± 7.7 mL/min/kg | 2.72 ± 1.82 h | 1520 ± 317 ng/mL |  |  |  |  |
| CN(c1ncnc2[nH]ccc12)[C@@H]1CC2CNC(=O)CC2C1 (stereo partly drawn) [Example 148, (6S)-6-(methyl(7H-pyrrolo[2,3-d]pyrimidin-4-yl)amino)hexahydro-1H-cyclopenta[c]pyridin-3(2H)-one] | 23 nM |  | 6.99 ± 3.39 L/kg | 5230 ± 1170 ng·h/mL | 33.2 ± 7.7 mL/min/kg | 2.72 ± 1.82 h | 1520 ± 317 ng/mL | 399 nM |  |  |  |
| CN(c1ncnc2[nH]ccc12)[C@H]1C[C@@H]2CN(C(=O)[C@H](O)C(F)(F)F)C[C@@H]2C1 [Example 94, (S)-3,3,3-trifluoro-2-hydroxy-1-((3aR,5R,6aS)-5-(methyl(7H-pyrrolo[2,3-d]pyrimidin-4-yl)amino)hexahydrocyclopenta[c]pyrrol-2(1H)-yl)propan-1-one] |  |  |  |  |  |  |  |  | 152 nM | 127 nM |  |
| CN(c1ncnc2[nH]ccc12)[C@@H]1C[C@H]2CN(C(=O)CO)C[C@@]2(C)C1 (racemic) [Example 14, 2-hydroxy-1-((3aS,5R,6aR/3aS,5R,6aR)-3a-methyl-5-(methyl(7H-pyrrolo[2,3-d]pyrimidin-4-yl)amino)hexahydrocyclopenta[c]pyrrol-2(1H)-yl)ethanone] |  |  |  |  |  |  |  |  |  | 712 nM | 30 nM |
| CN(c1ncnc2[nH]ccc12)[C@H]1C[C@H]2CNC(=O)C[C@H]2C1 [Example 147, (4aR,6R,7aR)-6-(methyl(7H-pyrrolo[2,3-d]pyrimidin-4-yl)amino)hexahydro-1H-cyclopenta[c]pyridin-3(2H)-one] | 5 nM | 15 nM |  |  |  |  |  |  |  |  |  |

Source: US9527851B2, “Pyrrole six-membered heteroaryl ring derivative, preparation method thereof, and medicinal uses thereof” (Jiangsu Hengrui Medicine Co., Ltd., priority 2011, dated 2016)
